Laboratory results taken from US9072751B2, “Na/K-ATPase ligand” (priority 2006, dated 2015).

Tests used:
Na/K-ATPase = biological target: T1, Na/K-ATPase (Rattus norvegicus, UniProt P06685); test: Ouabain sensitive 86Rb uptake in cardiac fibroblasts; format: cell-based
T1 construct: In vitro studies were then pursued with cultured isolated cardiac fibroblasts; endogenous in cells; host or cells: primary isolated cardiac fibroblasts in culture
Procedure: (§1) To further examine the molecular basis of this cardiac fibrosis, isolated cardiac fibroblasts were subjected to increase doses of MBG (10^−10, 10^−9, and 10^−8 M). […] Using collagenase digestion, we observed that the vast majority of the proline incorporation was into collagen. Using standardized RT-PCR, we observed a doubling of mRNA for collagen-1 at 24 hours in response to 10 nM of MBG.
(§2) Representative Western blot for procollagen and quantitative densitometric data obtained in response to different doses of (a) MBG (all N=10), (b) MBG 10 nM contrasted with different doses of ouabain (0.1 to 100 nM) and digoxin (10 nM; all N=8). c, ouabain sensitive Rb uptake as a function of MBG and ouabain concentration (N=4 at each concentration for both MBG and ouabain; data expressed as fraction of control). d, relative proline incorporation in the supernatant and matrix, both will and without collagenase digestion (total). Each group (controls and different doses of MBG) contains N=7 replicants. The difference between the total and after collagenase digestion is reported as collagen. […] Bars on quantitative graphs represent the mean.+−.SEM. *P<0.05 and **P<0.01 vs control.

dermal fibroblasts = test: Collagen expression in human dermal fibroblasts; format: cell-based; details: 5 or 10 nM
Description: (§3) We next examined whether skin fibroblasts lines had similar response. This was done with dermal fibroblasts kindly provided by Dr. Bashar Kahaleh. […] The magnitude of this response is illustrated by comparison to maximal doses of TGFβ, the “classic” stimulus for fibrosis (see below). In addition, we observed that an immortalized fibroblast line responded similarly to MBG, ouabain and digoxin.
(§4) Response of dermal fibroblasts to MBG as compared with TGF beta. Note that increase in collagen expression in MBG is approximately 10 fold with 5 or 10 nM MBG.

[1] = Plasma MBG and aldosterone 4 weeks after MBG minipump infusion in rats; format: in vivo, Sprague-Dawley rats; details: mean ± SEM
Procedure: Male, Sprague-Dawley rats were used for all of the studies. All of the animal experimentation described in the article was conducted in accordance with the National Institutes of Health Guide for the Care and use of Laboratory Animals using protocols approved by the Medical University of Ohio Institutional Animal Use and Care Committee.
Briefly, Sprague-Dawley rats weighing.apprxeq.250 g at the time of surgery were subjected to either sham surgery with no MBG infusion (Sham), sham surgery with placement of a minipump infusing MBG at 10 μg/kg per day (MBG), PNx, and PNx after immunization against MBG (PNx-IM). MBG of extremely high purity (>99%) was isolated from the venom of Bufa marinas by Kennedy et al. In addition to these maneuvers, a group of PNx animals was subjected to adrenalectomy as well (PNx-ADx).
(determined after extraction on a C-18 column using DELPHIA as described previously), aldosterone (determined with ELISA kit 10004377, Cayman Chemical) and cardiac immunohistochemistry (vida infra) were assessed 4 weeks after surgery.

[2] = tested on: isolated cardiac fibroblasts; test: Procollagen stability after cycloheximide in cardiac fibroblasts; format: cell-based, rat; details: 10 nM
Procedure: as §1, §2

[3] = tested on: isolated cardiac fibroblasts; test: Collagen-1 mRNA by standardized RT-PCR in cardiac fibroblasts; format: cell-based, rat; details: 24 hours, 10 nM
Procedure: Standardized RT-PCR was used to measure gene expression, with GAPDH transcript used as the housekeeping gene, as reported previously.
as §1, §2

SYF+Src line = test: In vitro wound healing (scrape injury) in SYF+Src fibroblasts; format: cell-based, mouse; details: 12 hour pretreatment
Procedure: Next, we examined whether wound healing might be advantageously impacted by cardiotonic steroids. We grew a mouse fibroblast cell line, the SYF+Src line to confluence and make injuries by scraping with a pipette tip.
Representative images from fibroblasts at 3, 7 and 12 hours following injury. Quantification of wound closure from fibroblast cultures. Data represents N=6 separate pairs of experiments, each of which involves 3 determinations at each time point. Data shown as mean+/−SEM. **<0.01. We proposed to enhance skin fibroblast collagen production by topical or injected administration of cardiotonic steroids and prevent or reverse aging related loss of skin tone.

SYF cells = test: Procollagen expression in SYF cells; format: cell-based; details: MBG 10 nM
Description: To examine whether cardiotronic steroids induced collagen synthesis by signaling through the Na/K-ATPase, we performed the following studies. First, we used pharmacological antagonism at several steps in the Na/K-ATPase cascade. Specifically, we used pharmacological antagonism of Src activation with PP2, nonspecific tyrosine kinase inhibition with herbimycin, inhibition of EGFR transactivation with AG1478, and nonspecific antioxidant administration with N-acetyle cysteine. […] Next we performed studies in the SYF and SYF+ cells (details available in the online supplement).
The effects of PP2 (1 μmol/L), herbimycin (1 μmol/L), AG1478 (250 nM), and N-acetyl cysteine (2.5 mmol/L) on MBG (10 nM) stimulation of procollagen expression also were found. The PP2, herbimycin AG1478, and N-acetyl cysteine were administered from 2 hours before the addition of MBG and continued throughout the 24 hours of MBG incubation (total of 26 hours). Each bar represents the mean.+−.SEM of n=8 experiments. b, effects of PP2 (1 μmol/L) and N-acetyle cysteine (2.5 mmol/L) on MBG (10 nM)-stimulated proline incorporation into collagen. Again, the PP2 an N-acetyl cysteine were added 2 hours before exposure to MBG. Each bar represents the mean.+−.SEM of N=5 experiments. c, effects of MBG 10 nM on procollagen content in SYF and SYF+ cells. Representative Western blots are shown above quantitative data. […]

fibroblast cell line = test: Procollagen expression in immortalized fibroblast cell line (Western blot); format: cell-based
Description: as §3, §4

Question: For `C[C@]12CC[C@H](O)C[C@@]1(O)CC[C@@H]1[C@@H]2CC[C@]2(C)[C@@H](c3ccc(=O)oc3)C[C@H]3O[C@]132` [MBG, marinobufagenin], which “Threshold for inducing collagen expression relative to doses with detectable effects on 86Rb uptake” value (Na/K-ATPase) is on record?
Answer: log units below

Question: What about the “Increase in collagen expression” value (dermal fibroblasts) of the same compound?
Answer: approximately 10 fold

Question: What about the “Plasma MBG” value ([1]; MBG infusion 10 μg/kg per day by minipump) of the same compound?
Answer: 484 ± 47 pmol/L

Question: And the Plasma aldosterone ([1]; MBG infusion 10 μg/kg per day)?
Answer: 205 ± 35 pg/mL

Question: And the “Procollagen stability (procollagen-1 expression after cycloheximide)” value [2]?
Answer: did not detect any increases

Question: What about the “mRNA for collagen-1” value [3] of the same compound?
Answer: doubling

Question: And the “Closure of the experimental lesion” value (SYF+Src line)?
Answer: markedly accelerated

Question: And the “Response of procollagen expression in SYF cells” value (SYF cells)?
Answer: essentially no response

Question: And the “Effect on fibroblast cell line expression of procollagen” value (fibroblast cell line)?
Answer: Comparable effect
